Experimental data: patent US12527325B2, “Pesticidally active diazine-amide compounds” (SYNGENTA CROP PROTECTION AG, priority 2019, dated 2026)

Key:
Type in all cases: in vivo
[1] = test system: Chilo suppressalis; test: Example B4: Chilo suppressalis (Striped Rice Stemborer); details: 144 h, application rate of 200 ppm, artificial diet, L2 larvae, 6 days after infestation, read-out: control in at least one of the three categories (mortality, anti-feedant or growth inhibition)
Method: Example B4: Chilo suppressalis (Striped Rice Stemborer)
24-well microtiter plates with artificial diet were treated with aqueous test solutions prepared from 10′000 ppm DMSO stock solutions by pipetting. After drying, the plates were infested with L2 larvae (6-8 per well). The samples were assessed for mortality, anti-feeding effect, and growth inhibition in comparison to untreated samples 6 days after infestation. Control of Chilo suppressalis by a test sample is given when at least one of the categories mortality, anti-feedant effect, and growth inhibition is higher than the untreated sample.

[2] = test system: Plutella xylostella; test: Example B5: Plutella xylostella (Diamond Back Moth); details: 192 h, application rate of 200 ppm, 24-well artificial diet, eggs, 8 days after infestation, read-out: control in at least one of the two categories (mortality or growth inhibition)
Method: Example B5: Plutella xylostella (Diamond Back Moth)
24-well microtiter plates with artificial diet were treated with aqueous test solutions prepared from 10′000 ppm DMSO stock solutions by pipetting. After drying, Plutella eggs were pipetted through a plastic stencil onto a gel blotting paper and the plate was closed with it. The samples were assessed for mortality and growth inhibition in comparison to untreated samples 8 days after infestation.

[3] = test system: Spodoptera littoralis; test: Example B9: Spodoptera littoralis (Egyptian Cotton Leaf Worm), cotton leaf disc spray; details: foliar, 72 h, application rate of 200 ppm, sprayed cotton leaf discs, L1 larvae, 3 days after infestation, read-out: control in at least one of the three categories (mortality, anti-feedant or growth inhibition)
[4] = test system: Plutella xylostella; test: Example B12: Plutella xylostella (Diamondback Moth), 96-well artificial diet; details: 216 h, application rate of 500 ppm, eggs, 9 days after infestation
Method: Example B12: Plutella xylostella (Diamondback Moth)
96-well microtiter plates containing artificial diet were treated with aqueous test solutions, prepared from 10′000 ppm DMSO stock solutions, by a liquid handling robot. After drying, eggs (˜30 per well) were infested onto a netted lid which was suspended above the diet. The eggs hatch and L1 larvae move down to the diet. The samples were assessed for mortality 9 days after infestation.

[5] = test system: Diabrotica balteata; test: Example B1: Diabrotica balteata (Corn Root Worm); details: 96 h, application rate of 200 ppm, sprayed maize sprouts, L2 larvae, 4 days after infestation, read-out: control in at least one of the two categories (mortality or growth inhibition)
Method: Example B1: Diabrotica balteata (Corn Root Worm)
Maize sprouts placed onto an agar layer in 24-well microtiter plates were treated with aqueous test solutions prepared from 10′000 ppm DMSO stock solutions by spraying. After drying, the plates were infested with L2 larvae (6 to 10 per well). The samples were assessed for mortality and growth inhibition in comparison to untreated samples 4 days after infestation.

CC(NC(=O)c1cc(C(F)(F)F)cc(S(=O)(=O)C(F)(F)F)c1)c1nccnc1-c1ncc(C2CC2)cn1 (centres unmarked) [P11, N-[1-[3-(5-cyclopropylpyrimidin-2-yl)pyrazin-2-yl]ethyl]-3-(trifluoromethyl)-5-(trifluoromethylsulfonyl) benzamide]
≥ 80%: percent control (mortality, anti-feedant effect or growth inhibition) at 200 ppm [1] | percent control (mortality or growth inhibition) at 200 ppm [2] | percent control (mortality, anti-feedant effect or growth inhibition) at 200 ppm [3] | mortality at 500 ppm [4]

CC(NC(=O)c1cc(C(F)(F)F)cc(S(=O)(=O)C(F)(F)F)c1)c1nccnc1-c1ccc(F)cn1 (centres unmarked) [P12, N-[1-[3-(5-fluoro-2-pyridyl)pyrazin-2-yl]ethyl]-3-(trifluoromethyl)-5-(trifluoromethylsulfonyl) benzamide]
≥ 80%: percent control (mortality, anti-feedant effect or growth inhibition) at 200 ppm [1] | mortality at 500 ppm [4]

CC(NC(=O)c1cc(C(F)(F)F)cc(S(=O)(=O)C(F)(F)F)c1)c1nccnc1-c1ccccn1 (centres unmarked) [P13, N-[1-[3-(2-pyridyl)pyrazin-2-yl]ethyl]-3-(trifluoromethyl)-5-(trifluoromethylsulfonyl) benzamide]
≥ 80%: percent control (mortality or growth inhibition) at 200 ppm [5] | percent control (mortality, anti-feedant effect or growth inhibition) at 200 ppm [1] | percent control (mortality or growth inhibition) at 200 ppm [2] | percent control (mortality, anti-feedant effect or growth inhibition) at 200 ppm [3] | mortality at 500 ppm [4]

CC(NC(=O)c1cc(C(F)(F)F)nc(C2(C#N)CC2)c1)c1nccnc1-c1ccc(Cl)cn1 (centres unmarked) [P16, N-[1-[3-(5-chloro-2-pyridyl)pyrazin-2-yl]ethyl]-2-(1-cyanocyclopropyl)-6-(trifluoromethyl)pyridine-4-carboxamide]
≥ 80%: percent control (mortality or growth inhibition) at 200 ppm [5] | percent control (mortality, anti-feedant effect or growth inhibition) at 200 ppm [1] | percent control (mortality or growth inhibition) at 200 ppm [2] | percent control (mortality, anti-feedant effect or growth inhibition) at 200 ppm [3] | mortality at 500 ppm [4]

CC(NC(=O)c1cc(C(F)(F)F)cc(C2(C#N)CC2)c1)c1nccnc1-c1ccc(Cl)cn1 (centres unmarked) [P17, N-[1-[3-(5-chloro-2-pyridyl)pyrazin-2-yl]ethyl]-3-(1-cyanocyclopropyl)-5-(trifluoromethyl)benzamide]
≥ 80%: percent control (mortality or growth inhibition) at 200 ppm [5] | percent control (mortality, anti-feedant effect or growth inhibition) at 200 ppm [1] | percent control (mortality or growth inhibition) at 200 ppm [2] | percent control (mortality, anti-feedant effect or growth inhibition) at 200 ppm [3] | mortality at 500 ppm [4]

CC(NC(=O)c1cc(C2CC2)cc(C(F)(F)F)c1)c1nccnc1-c1ccc(Cl)cn1 (centres unmarked) [P18, N-[1-[3-(5-chloro-2-pyridyl)pyrazin-2-yl]ethyl]-3-cyclopropyl-5-(trifluoromethyl)benzamide]
≥ 80%: percent control (mortality, anti-feedant effect or growth inhibition) at 200 ppm [1] | percent control (mortality or growth inhibition) at 200 ppm [2] | mortality at 500 ppm [4]

CC(NC(=O)c1cc(C(F)(F)F)cc(C(F)(F)C2CC2)c1)c1nccnc1-c1ccccn1 (centres unmarked) [P20, 3-[cyclopropyl (difluoro)methyl]-N-[1-[3-(2-pyridyl)pyrazin-2-yl]ethyl]-5-(trifluoromethyl) benzamide]
≥ 80%: percent control (mortality or growth inhibition) at 200 ppm [5] | percent control (mortality, anti-feedant effect or growth inhibition) at 200 ppm [1] | percent control (mortality or growth inhibition) at 200 ppm [2] | percent control (mortality, anti-feedant effect or growth inhibition) at 200 ppm [3] | mortality at 500 ppm [4]

CC(NC(=O)c1cc(C(F)(F)F)cc(C2(C#N)CC2)c1)c1nccnc1-c1ccc(Br)cn1 (centres unmarked) [P24, N-[1-[3-(5-bromo-2-pyridyl)pyrazin-2-yl]ethyl]-3-(1-cyanocyclopropyl)-5-(trifluoromethyl)benzamide]
≥ 80%: percent control (mortality or growth inhibition) at 200 ppm [5] | percent control (mortality, anti-feedant effect or growth inhibition) at 200 ppm [1] | percent control (mortality or growth inhibition) at 200 ppm [2] | percent control (mortality, anti-feedant effect or growth inhibition) at 200 ppm [3] | mortality at 500 ppm [4]

CC(NC(=O)c1cc(C(F)(F)F)nc(C2(C#N)CC2)c1)c1nccnc1-c1ccc(F)cn1 (centres unmarked) [P27, 2-(1-cyanocyclopropyl)-N-[1-[3-(5-fluoro-2-pyridyl)pyrazin-2-yl]ethyl]-6-(trifluoromethyl)pyridine-4-carboxamide]
≥ 80%: percent control (mortality, anti-feedant effect or growth inhibition) at 200 ppm [1] | percent control (mortality or growth inhibition) at 200 ppm [2] | mortality at 500 ppm [4]

CC(NC(=O)c1cc(C(F)(F)F)nc(C2(C#N)CC2)c1)c1nccnc1-c1ccc(Br)cn1 (centres unmarked) [P28, N-[1-[3-(5-bromo-2-pyridyl)pyrazin-2-yl]ethyl]-2-(1-cyanocyclopropyl)-6-(trifluoromethyl)pyridine-4-carboxamide]
≥ 80%: percent control (mortality or growth inhibition) at 200 ppm [5] | percent control (mortality, anti-feedant effect or growth inhibition) at 200 ppm [1] | percent control (mortality or growth inhibition) at 200 ppm [2] | percent control (mortality, anti-feedant effect or growth inhibition) at 200 ppm [3] | mortality at 500 ppm [4]

CC(NC(=O)c1cc(C2CC2)cc(C(F)(F)F)c1)c1nccnc1-c1ccccn1 (centres unmarked) [P33, 3-cyclopropyl-N-[1-[3-(2-pyridyl)pyrazin-2-yl]ethyl]-5-(trifluoromethyl)benzamide]
≥ 80%: percent control (mortality or growth inhibition) at 200 ppm [5] | percent control (mortality, anti-feedant effect or growth inhibition) at 200 ppm [1] | percent control (mortality or growth inhibition) at 200 ppm [2] | mortality at 500 ppm [4]

CC(NC(=O)c1cc(C2CC2)cc(C(F)(F)F)c1)c1nccnc1-c1ncc(OC(F)F)cn1 (centres unmarked) [P34, 3-cyclopropyl-N-[1-[3-[5-(difluoromethoxy)pyrimidin-2-yl]pyrazin-2-yl]ethyl]-5-(trifluoromethyl)benzamide]
≥ 80%: percent control (mortality or growth inhibition) at 200 ppm [5] | percent control (mortality, anti-feedant effect or growth inhibition) at 200 ppm [1] | percent control (mortality or growth inhibition) at 200 ppm [2] | percent control (mortality, anti-feedant effect or growth inhibition) at 200 ppm [3] | mortality at 500 ppm [4]

CC(NC(=O)c1cc(C2CC2)cc(C(F)(F)F)c1)c1nccnc1-c1ncc(C2CC2)cn1 (centres unmarked) [P35, 3-cyclopropyl-N-[1-[3-(5-cyclopropylpyrimidin-2-yl)pyrazin-2-yl]ethyl]-5-(trifluoromethyl)benzamide]
≥ 80%: percent control (mortality or growth inhibition) at 200 ppm [5] | percent control (mortality, anti-feedant effect or growth inhibition) at 200 ppm [1] | percent control (mortality or growth inhibition) at 200 ppm [2] | percent control (mortality, anti-feedant effect or growth inhibition) at 200 ppm [3] | mortality at 500 ppm [4]

CC(NC(=O)c1cc(C(F)(F)F)nc(C2(C#N)CC2)c1)c1nccnc1-c1ncc(C2CC2)cn1 (centres unmarked) [P36, 2-(1-cyanocyclopropyl)-N-[1-[3-(5-cyclopropylpyrimidin-2-yl)pyrazin-2-yl]ethyl]-6-(trifluoromethyl)pyridine-4-carboxamide]
≥ 80%: percent control (mortality or growth inhibition) at 200 ppm [5] | percent control (mortality, anti-feedant effect or growth inhibition) at 200 ppm [1] | percent control (mortality or growth inhibition) at 200 ppm [2] | percent control (mortality, anti-feedant effect or growth inhibition) at 200 ppm [3] | mortality at 500 ppm [4]

CC(NC(=O)c1cc(C(F)(F)F)cc(C(F)(F)C2CC2)c1)c1nccnc1-c1ccc(F)cn1 (centres unmarked) [P38, 3-[cyclopropyl (difluoro)methyl]-N-[1-[3-(5-fluoro-2-pyridyl)pyrazin-2-yl]ethyl]-5-(trifluoromethyl)benzamide]
≥ 80%: percent control (mortality or growth inhibition) at 200 ppm [2] | mortality at 500 ppm [4]

CC(NC(=O)c1cc(C2CC2)cc(C(F)(F)F)c1)c1nccnc1-c1ccc(F)cn1 (centres unmarked) [P40, 3-cyclopropyl-N-[1-[3-(5-fluoro-2-pyridyl)pyrazin-2-yl]ethyl]-5-(trifluoromethyl)benzamide]
≥ 80%: percent control (mortality or growth inhibition) at 200 ppm [5] | percent control (mortality, anti-feedant effect or growth inhibition) at 200 ppm [1] | percent control (mortality or growth inhibition) at 200 ppm [2] | percent control (mortality, anti-feedant effect or growth inhibition) at 200 ppm [3] | mortality at 500 ppm [4]
